In patent publication US20140356293A1, “FLUORESCENT COMPOSITIONS WITH ENHANCED FLUORESCENCE AND METHODS BASED THEREON” (The Research Foundation of the State University o New York, priority 2012, published 2014):
“And” between values parts separate entries of the source, which are not always exact repeats. Identical values can stand only once. Like-named read-outs stand apart in the source and are kept apart here.

How the values were obtained:
[1] = Stability of ICG fluorescence (storage of stock solutions; constant illumination); assay type: physicochemical
Experimental: A vial of ICG containing 2.5 mg of ICG was dissolved into 10 ml of DMSO. […] Aqueous solutions fade rapidly. The ICG in DMSO (“ICG/DMSO”) stock solution was diluted into Enfamil and fluorescence intensity measured. […] The DMSO concentration at the peak fluorescence was 0.3%. Thus enhancement of fluorescence intensity was similar to that observed with use of reconstituted nonfat dry milk.
With respect to FIG. 12, a solution of ICG in Enfamil (8 μg/ml) in a Petri dish was positioned in the imaging system. With constant illumination the fluorescence image was captured every 10 seconds for 22 minutes.

[2] = Aqueous ICG preparation used to image the urinary tract of rats; assay type: physicochemical; settings: aqueous solution 2.5 mg/ml diluted
Experimental: ICG used to image the urinary tract of rats was prepared according to package insert instructions (aqueous solution 2.5 mg/ml) and diluted to 10 μg/ml to achieve peak fluorescence. It was observed that the fluorescence of these preparations was not as intense as that achieved when ICG was injected intravenously and diluted into the blood.

[3] = in vivo; cited from earlier work
[4] = cited from earlier work
[5] = Relative fluorescence intensity of ICG formulations in Petri dishes, NIRF imaging system; assay type: physicochemical; settings: for maximum fluorescent intensity: 5 μg/ml ICG
Experimental: Real-time near-infrared fluorescent (NIRF) imaging was accomplished using a NIRF imaging system. The ring light was coupled to a tungsten halogen source filtered with a Chroma excitation filter (775 nm). The Navitar Zoom 7000 lens was fitted with a Chroma emission filter (845 nm). Images were captured with a Qimaging Retiga camera. Petri dishes (35 mm diameter) were positioned in the imaging system that contained 2 ml of a sample of an enhanced fluorescent composition comprising ICG. This system was used in the investigations of ICG fluorescence enhancement described in this example. Excitation light was delivered to the field of interest using a fiber optic ring light coupled to a tungsten halogen source (Illumination Technologies, Inc. IT 9596-ER) filtered with a 775 nm bandpass filter (Chroma Technologies). A Navitar Zoom 7000 Lens was fitted on a Qimaging Retiga EXi cooled CCD camera.
Indocyanine Green (ICG) stock solutions were prepared by adding 10 ml of diluent to a 25 mg vial of IC Green (Akorn Incorporated). Diluents were water (supplied by the manufacturer), ethanol, or dimethyl sulfoxide (DMSO).
Milk solutions were prepared by dissolving Instant Nonfat Dry Milk (Nestle Carnation) in water at various concentrations up to 30% weight to volume
To prepare ICG-based enhanced fluorescent compositions, ICG stock solutions were added to achieve concentrations up to 250 μg/ml. Relative fluorescence intensity of various formulations was measured in 35 mm circular Petri dishes containing 2 ml. A floating toothpick provided a focusing target.
Intralipid formulations were prepared from Intralipid 20% (Fresenius Kabi), which is a sterile non-pyrogenic fat emulsion prepared for intravenous administration for parenteral nutrition. Intralipid is also a vehicle for intravenous (i.v.) delivery of propofol, and is used as an antidote for acute local anesthetic toxicity. It is a white opaque liquid containing 20% soy bean oil, egg phospholipids, glycerin, and water. ICG stock solutions were added to achieve a range of concentrations of ICG up to 250 μg/ml in the enhanced fluorescent composition.
Stock aqueous ICG solution was diluted into 10, 20, and 30% milk to achieve 1, 5, 10, and 20 μg/ml final concentrations. Fluorescent images of 2 ml of each preparation in 35 mm Petri dishes were acquired using QCapture and quantified using ImageJ.
[…] […] The ICG in DMSO (“ICG/DMSO”) stock solution was diluted into Enfamil and fluorescence intensity measured.
Intralipid is milk-like in its appearance and the major ingredient is 20% soy bean oil. Because Intralipid is approved for human intravenous use, a series of diluted solutions was prepared from the ICG/DMSO stock solution.
In the work summarized in FIG. 9, solutions of ICG were prepared in DMSO, water, or ethanol at 2.5 mg/ml and then diluted to the indicated concentrations across the top of the figure in the diluents listed down the left side. The DMSO and ethanol diluents were diluted with water. Two ml of each solution was transferred to a Petri dish and imaged as described herein in an NIRF imaging system. […] Also imaged were the same ICG concentrations in 5% ethanol and water. […] The use of ethanol and DMSO in pharmaceuticals is limited by the toxicity of these compounds.

- Persistence of fluorescence of aqueous solutions [1]: fade rapidly
- ICG concentration to achieve peak fluorescence [2]: 10 µg/mL
- maximum fluorescent intensity ([5]; 10% milk, arbitrary units of integrated density): about 950000 IntDen
- maximum fluorescent intensity ([5]; 20% milk): about 1000000 IntDen
- maximum fluorescent intensity ([5]; 30% milk): about 1150000 IntDen
- Dependence of fluorescence on milk concentration ([5]; 10, 20, 30% milk): increased with milk concentration
- Fluorescence intensity versus ICG concentration ([5]; 25% DMSO in water, FIG. 9): increased from 1 to 100 μg/ml
- ICG concentration at which imaging system was fully saturated ([5]; 100% DMSO, FIG. 9): 12.5 µg/mL
- ICG concentration at peak fluorescence ([5]; ICG in DMSO diluted into Enfamil, Example 2, FIG. 10): around 8 μg/ml
- ICG concentration at peak fluorescence ([5]; ICG in DMSO diluted into Intralipid, exposure time reduced from 90 to 70 ms, Example 2, FIG. 10): 8 µg/mL
- ICG concentration at peak fluorescence ([5]; ICG/DMSO stock (2.5 mg/ml) diluted into Enfamil, final DMSO 0.3%, Example 1, FIG. 5): 7.8 µg/mL
- ICG concentration at peak fluorescence ([5]; aqueous ICG stock diluted into 10, 20 and 30% reconstituted nonfat dry milk, 1, 5, 10, 20 μg/ml tested): 5 µg/mL
- ICG concentration at which quenching occurred ([5]; in 10, 20 and 30% reconstituted dry milk): ≥ 10 µg/mL
- ICG concentration at which fluorescence decreased (quenched) ([5]; in Enfamil, FIG. 9): 50 µg/mL and 100 µg/mL
- Fluorescence of ICG diluted into water or saline ([5]; same imaging conditions as milk preparations): no detectable fluorescence
Compound: CC1(C)C(/C=C/C=C/C=C/C=C2\N(CCCCS(=O)(=O)O)c3ccc4ccccc4c3C2(C)C)=[N+](CCCCS(=O)(=O)[O-])c2ccc3ccccc3c21 [ICG, Indocyanine green]
- Route of excretion [3]: excreted exclusively in the bile
- Maximum fluorescence wavelength ([4]; in blood): approximately 830 nm
- maximum absorption ([4]; in plasma at low concentrations): ~800 nm
- Maximum fluorescence wavelength ([4]; in water): approximately 810 nm
- Fluorescence intensity versus ICG concentration ([5]; 100% ethanol, FIG. 9): lower than in DMSO but increased up to 100 μg/ml
